Measured values: patent US7897645B2, “Herpesvirus-derived therapeutic agent for pain” (Taiho Pharmaceutical Co., Ltd., priority 2005, dated 2011)

Tests used:
[1] = system: post herpetic neuralgia; experiment: Visual Analogue Scale (VAS) evaluation of pain in herpes zoster / post herpetic neuralgia patients (case reports); assay type: in vivo, human; details: for VAS evaluation of pain: mecobalamin 1500 μg/day and sodium loxoprofen 180 mg/day oral together, after 2 weeks
Method: The present invention will be described below in more detail with reference to examples and test examples. However, the invention is not limited by these examples. The sharp pain in examples was evaluated by the Visual Analogue Scale evaluation (hereinafter abbreviated to “VAS evaluation”), in which the grade of pain of each patient is expressed by himself or herself on a 100 mm straight line. In VAS evaluation, the highest score is 10 points (100 mm), and the point becomes smaller according to the decrease of the pain. (refer to Anesth Analog 1993, 77, 1041-1047 etc.)

[2] = system: post herpetic neuralgia; experiment: Clinical course of zoster-associated pain in patients, in words (case reports); assay type: in vivo, human; details: for effect on continued pain after herpes zoster: Example 6: person, diclofenac sodium suppository 1 to 2 times per day in addition to morphine hydrochloride 30 mg/day
Method: A person. They were diagnosed as right face herpes zoster. Anti-virus agent was administered by drops for 5 days. Since dull pain remained at the same region thereafter, oral administration of mecobalamin of 1500 μg/day and sodium loxoprofen of 180 mg/day was started after the consultation. After administration for 2 weeks, VAS evaluation of pain dropped to 1 point, and the administration of sodium loxoprofen stopped with administration of mecobalamin maintained. Mecobalamin was further administered, and although VAS evaluations were 1 to 3 points for about 3 months, sense of incongruity and spasmodic sharp pain of neuralgia after herpes zoster continued, and therefore oral administration of a 100 mg capsule of IPD 3 times per day was started in the same manner as in Example 1 with administration of mecobalamin maintained. After 1 week of the administration of suplatast tosylate, the post herpetic neuralgia disappeared, and VAS evaluation became 0 point. […] Then administration was stopped.
A person. Painful rashes appeared from right chest to the back, and they were diagnosed as herpes zoster. Anti-virus agent was administered by dropping for 1 week, but the pain continued. Diclofenac sodium suppository was used by 1 to 2 times per day in addition to administration of morphine hydrochloride 30 mg/day, but both of them were no effect, and further nerve block treatment was also no effect. After 6 months of the consultation (7 points at VAS evaluation), oral administration of a 100 mg capsule of IPD 3 times per day was started in the same manner as in Example 1, the post herpetic neuralgia decreased to 5 points at VAS evaluation by the treatment for 3 weeks, although the administration of morphine was invalid.

## CCOCC(O)COc1ccc(NC(=O)CC[S+](C)C)cc1.Cc1ccc(S(=O)(=O)[O-])cc1 (racemic) [suplatast tosylate, (±)-[2-[4-(3-ethoxy-2-hydroxypropoxy)phenylcarbamoyl]ethyl]dimethylsulfonium p-toluenesulfonate]
[1]; Example 1: person, PHN, 100 mg capsule of IPD 3 times per day oral, after 3 days, 5 points before
  VAS evaluation: 0 point
[1]; Example 2: person, PHN, 100 mg capsule of IPD 3 times per day oral, after 1.5 months, 7 points before
  VAS evaluation: 2 points
[1]; Example 3: person, PHN, 100 mg capsule of IPD 3 times per day oral, mecobalamin maintained, after 1 week, 1 to 3 points before
  VAS evaluation: 0 point
[1]; Example 4: person, PHN, 100 mg capsule of IPD 3 times per day oral, after 1 month, 0.5 to 1 point before
  VAS evaluation: 0.1 to 0.2 point
[1]; Example 5: person, PHN, 100 mg capsule of IPD 3 times per day oral, by continuation of the administration
  VAS evaluation: 0.7 point
[1]; Example 5: person, PHN, 100 mg capsule of IPD 3 times per day oral, first decrease, 5 points before
  VAS evaluation: 1 point
[1]; Example 6: person, PHN, 100 mg capsule of IPD 3 times per day oral, treatment for 3 weeks, 7 points before
  VAS evaluation: 5 points
[2]; Example 3: person, oral suplatast tosylate and mecobalamin continued for further about 1 month
  symptoms on continued administration: no symptom was observed

## O=C(O)Cc1ccccc1Nc1c(Cl)cccc1Cl [Diclofenac sodium]
[2]
  effect on continued pain after herpes zoster: no effect

## C/C1=C2/[N-][C@H]([C@H](CC(N)=O)[C@@]2(C)CCC(=O)NC[C@@H](C)OP(=O)([O-])O[C@H]2[C@@H](O)[C@@H](n3cnc4cc(C)c(C)cc43)O[C@@H]2CO)[C@]2(C)N=C(/C(C)=C3N=C(/C=C4N=C1[C@@H](CCC(N)=O)C\4(C)C)[C@@H](CCC(N)=O)[C@]\3(C)CC(N)=O)[C@@H](CCC(N)=O)[C@]2(C)CC(N)=O.[CH3-].[Co+3] [mecobalamin]
[1]; Example 1: person, mecobalamin 1500 μg/day oral continued, neuralgia not changed for 3 years after consultation
  VAS evaluation: 5 points
[1]; Example 2: person, mecobalamin 1500 μg/day continued, PHN did not change for 8 months after consultation
  VAS evaluation: 7 points
[1]; Example 3: person
  VAS evaluation of pain: 1 point
[1]; Example 3: person, mecobalamin alone further administered, for about 3 months
  VAS evaluations: 1 to 3 points
[1]; Example 4: person, mecobalamin 1500 μg/day for 1.5 months, 5 points before
  VAS evaluation: 0.5 to 1 point

## CN1CC[C@]23c4c5ccc(O)c4O[C@H]2[C@@H](O)C=C[C@H]3[C@H]1C5.Cl [morphine hydrochloride]
[2]
  effect on continued pain after herpes zoster: no effect

## CC(C(=O)[O-])c1ccc(CC2CCCC2=O)cc1.[Na+] (stereo not shown) [sodium loxoprofen]
[1]; Example 3: person
  VAS evaluation of pain: 1 point
